Measurements from article PMC6315005, “5F-Cumyl-PINACA in ‘e-liquids’ for electronic cigarettes: comprehensive characterization of a new type of synthetic cannabinoid in a trendy product including investigations on the in vitro and in vivo phase I metabolism of 5F-Cumyl-PINACA and its non-fluorinated analog Cumyl-PINACA” (Forensic Toxicology, 2018).
Entries after “also recorded” stand apart in the source; their conditions may differ.

Legend:
[1] = Self-administration study, phase I metabolites of Cumyl-PINACA in urine (LC-MS/MS); format: in vivo, human; conditions: 0.6 mg Cumyl-PINACA oral
CB1 receptor = system: CB1 receptor; design: method as in PMID 29367862; conditions: [35S]GTPγS binding; cited from earlier work
[2] = Self-administration study, serum concentrations of Cumyl-PINACA (LC-MS/MS); format: in vivo, human; conditions: 0.6 mg oral, one volunteer
Description: For analysis of the serum samples, a routinely used LC–MS/MS screening method, currently covering 94 compounds with at least two ion transitions for each analyte and one ion transition for each internal standard in positive scheduled multiple reaction monitoring (+sMRM) was applied. Briefly, a QTRAP™ 4000 triple quadrupole linear ion trap instrument (Sciex, Darmstadt, Germany) equipped with a TurbolonSpray® interface and coupled to a Shimadzu Prominence HPLC system consisting of two LC-20 AD SP isocratic pumps, SIL 20 AC autosampler, CTO-20A controller (Shimadzu, Duisburg, Germany) and Analyst® software version 1.6.2 were used (Sciex). […] The total flow rate was 0.5 mL/min. The autosampler and the column oven temperatures were set to 10 and 40 °C, respectively. The monitored ion transitions used for Cumyl-PINACA were m/z 350→215 and 350→232.
To investigate the in vivo phase I metabolism of Cumyl-PINACA, one of the authors (75 kg person) ingested 0.6 mg Cumyl-PINACA orally. In addition to blank samples taken prior to ingestion, serum and urine samples were collected repeatedly over periods of 17 and 31 h after ingestion, respectively. All samples were stored at − 20 °C until analysis. In Germany, approval by an ethics committee is not required for scientific self-experiments.
A 1-mL aliquot of a serum sample was spiked with 10 µL of an internal standard solution mixture (25 ng/mL each, ADBICA-d9, AKB48-d9, JWH-007-d9, JWH-015-d7, JWH-018-d11, JWH-073-d9, JWH-081-d9, JWH-122-d9, JWH-200-d5, JWH-210-d9, JWH-250-d5, JWH-398-d9, MAM-2201-d5, PB-22-d9, RCS-4-d9, UR-144-d5, XLR-11-d5). A 0.5-mL volume carbonate buffer (pH 10) and 1.5 mL of extraction mixture 1 (n-hexane/ ethyl acetate, 99:1, v/v) were added. After gentle mixing for 5 min, the sample was centrifuged and 1 mL of the supernatant was transferred to an HPLC vial. Subsequently, 1.5 mL of extraction mixture 2 (n-hexane/ethyl acetate, 80:20, v/v) was added to the residue, and the mixing and centrifugation steps were repeated. A 1-mL volume of the supernatant was added to the same HPLC vial, and after evaporation under a gentle stream of nitrogen at 40 °C and reconstitution in 100 µL of mobile phase (A/B, 80:20, v/v), the sample was analyzed using LC–MS/MS.

CB1 receptors = system: CB1 receptors; design: method as in PMID 28792725; conditions: mouse AtT-20 neuroblastoma cells, membrane potential; cited from earlier work
CB2 receptors = system: CB2 receptors; design: method as in PMID 28792725; conditions: mouse AtT-20 neuroblastoma cells, membrane potential; cited from earlier work
CB1 = biological target: T1, CB1 (Homo sapiens, UniProt P21554); test: cAMP biosensor assay with CB1 as target (DiscoveRx); format: cell-based
T1 construct: purchased DiscoveRx (Fremont, CA, USA)
T1 sequence (P21554 whole entry): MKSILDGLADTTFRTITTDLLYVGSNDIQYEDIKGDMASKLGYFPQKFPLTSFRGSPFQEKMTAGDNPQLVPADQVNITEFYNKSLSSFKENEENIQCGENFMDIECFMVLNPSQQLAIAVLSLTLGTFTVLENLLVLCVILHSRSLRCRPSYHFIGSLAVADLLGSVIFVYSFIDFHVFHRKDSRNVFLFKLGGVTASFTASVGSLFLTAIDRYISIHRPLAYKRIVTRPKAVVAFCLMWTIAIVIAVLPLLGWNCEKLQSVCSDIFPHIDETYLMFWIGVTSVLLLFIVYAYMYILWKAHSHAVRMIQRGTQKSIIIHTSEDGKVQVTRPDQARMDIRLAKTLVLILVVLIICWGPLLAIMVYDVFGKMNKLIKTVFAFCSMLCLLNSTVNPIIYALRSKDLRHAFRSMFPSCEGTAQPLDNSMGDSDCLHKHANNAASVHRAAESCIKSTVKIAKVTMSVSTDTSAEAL
Procedure: Each compound was tested in duplicates; to induce response, 20 µM forskolin was used.

CB2 receptor = system: CB2 receptor; design: method as in PMID 29367862; conditions: [35S]GTPγS binding; cited from earlier work

CCCCCn1nc(C(=O)NC(C)(C)c2ccccc2)c2ccccc21 [Cumyl-PINACA, 1-pentyl-N-(2-phenylpropan-2-yl)-1H-indazole-3-carboxamide]
detection of parent compound in urine [1]: not detected in urine | CB1 activity compared to CP-55,940 (CB1 receptor): less activities as compared to CP-55,940 | drug-related symptoms [2]: did not experience any drug-related symptoms | maximum concentration measured in serum [2]: 0.1 ng/mL | period of detection in serum [2]: about 17 h | Tmax ([2]; human, serum, read-out: time of maximum serum concentration after ingestion): 6 h | potency of CB1 receptor activation compared to CP-55,940 (CB1 receptors): greater potency than CP-55,940 | potency of CB2 receptor activation compared to CP-55,940 (CB2 receptors): greater potency than CP-55,940 | EC50 (CB1): 0.06 nM | relative potency among the tested substances (CB1): most potent SC among the tested compounds; also recorded: most potent substance in this assay | Curve top (CB1; agonist format, 20 µM forskolin): 93.7 | Emax (CB1; control ligand CP-55,940, read-out: Maximum response (compared to CP-55,940)): 92.9% | CB2 activity compared to CP-55,940 (CB2 receptor): less activities as compared to CP-55,940
